According to patent EP1285920A1, “C10 Ester sustituted taxanes as antitumor agents” (Florida State University Research Foundation, Inc., priority 2001, dated 2003):
Where two headings read alike, the source gives them in different places.

Legend:
A375 melanoma = tested on: A375 melanoma
Procedure: Dosing was initiated on Day 1. […] Taxotere was given i.v. on a qd x 1 schedule at a dose of 70 mg/kg. […] The study was terminated on Day 60. Treatment groups are detailed in Table 9.

[1] = tested on: Panc-1 pancreatic carcinoma; assay: In vivo evaluation against Panc-1 human pancreatic carcinoma (Example 17)
HCT116 = assay: In Vitro cytotoxicity measured by the cell colony formation assay; format: cell-based, human; conditions: Homo sapiens, HCT-116; read-out: IN VITRO ID 50 HCT116
Outline: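 Four hundred cells per dish in McCoy's 5a medium with 10% FBS were allowed to attach for 5 h at 37 °C. They were then exposed to compound for 72 h at 37 °C, added as a 10× stock made fresh in medium. After HBSS rinsing and refeeding, colonies were counted after 7 days.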

DU145 prostate carcinoma = tested on: DU145 prostate carcinoma
Description: Dosing was initiated on Day 1. […] Treatment groups are detailed in Table 5.

VM46 colon carcinoma = tested on: VM46 colon carcinoma
Procedure: Dosing was initiated on Day 1. […] Taxotere was given i.v. at a dose of 70 mg/kg on a qd x 1 schedule.

[2] = number of mice, i.v. qd x 1 at estimated MTD (Taxol 24 mg/kg, Taxotere 70 mg/kg), 6 mice/group (Taxotere 7), Day 60
[3] = Panc-1 (Example 17), i.v. qd x 1, six mice per group
[4] = number of mice, i.v. qd x 1, mg/kg: Taxol 36, 0499 77, 0503 72.6, 0670 123.1, 0706 107.6, 0838 72.6, 0854 76.9, 6 mice/group, Day 60
[5] = number of 5 mice, i.v. qd x 1 at estimated MTD (Taxol 24 mg/kg split), Day 91
[6] = number of mice, i.v. qd x 1, mg/kg: Taxol 24, 0499 77, 0503 72.6, 0670 123.1, 0706 107.6, 0838 72.6, 0854 46.6, 0983 67.4, Taxotere 70, 6 mice/group, Day 64

SMILES: CCC(=O)O[C@H]1C(=O)[C@@]2(C)[C@H]([C@H](OC(=O)c3ccccc3)[C@]3(O)C[C@H](OC(=O)[C@H](O)[C@H](C=C(C)C)NC(=O)OC(C)(C)C)C(C)=C1C3(C)C)[C@]1(OC(C)=O)CO[C@@H]1C[C@@H]2O [Compound 0499]
- Stable Disease (A375 melanoma; A375, i.v. qd x 1, six mice per group): one
- MDS (n) (A375 melanoma; mean days of survival until neoplasm reached 2.0 g, i.v. qd x 1 at estimated MTD (Taxol 24 mg/kg, Taxotere 70 mg/kg), 6 mice/group (Taxotere 7), terminated Day 60): 30.5 ± 3.5 (3) days
- Toxic Deaths (A375 melanoma; number of mice, i.v. qd x 1 at estimated MTD (Taxol 24 mg/kg, Taxotere 70 mg/kg), 6 mice/group (Taxotere 7)): 2
- Complete Response (A375 melanoma; [2]): 0
- Partial Response (A375 melanoma; [2]): 0
- Stable Disease (A375 melanoma; [2]): 1
- Survivors (A375 melanoma; [2]): 1
- Mean Score (A375 melanoma; tumor scoring system, i.v. qd x 1 at estimated MTD (Taxol 24 mg/kg, Taxotere 70 mg/kg), 6 mice/group (Taxotere 7)): 2.3 ± 0.9
- MDS ([1]; Panc-1 (Example 17), i.v. qd x 1 (compounds estimated MTD; Taxol 36 mg/kg split), days until tumor 1.5 g, ended Day 60): 47 to 56 days
- Partial Response [1, 3]: 1
- Stable Disease [1, 3]: one
- complete responses [1, 3]: 2
- MDS (n) ([1]; mean days of survival until neoplasm reached 1.5 g, i.v. qd x 1, mg/kg: Taxol 36, 0499 77, 0503 72.6, 0670 123.1, 0706 107.6, 0838 72.6, 0854 76.9, 6 mice/group, terminated Day 60): 56.1 ± 1.0 (2) days
- Toxic Deaths ([1]; number of mice, i.v. qd x 1, mg/kg: Taxol 36, 0499 77, 0503 72.6, 0670 123.1, 0706 107.6, 0838 72.6, 0854 76.9, 6 mice/group): 0
- Complete Response [1, 4]: 2
- Partial Response [1, 4]: 1
- Stable Disease [1, 4]: 1
- Survivors [1, 4]: 4
- Mean Score ([1]; tumor scoring system, i.v. qd x 1, mg/kg: Taxol 36, 0499 77, 0503 72.6, 0670 123.1, 0706 107.6, 0838 72.6, 0854 76.9, 6 mice/group): 7.4 ± 1.4
- IC50 (HCT116): < 1 nM
- Mean Score (DU145 prostate carcinoma; i.v. qd x 1 at estimated MTD (Taxol 24 mg/kg split), 5 mice/group, Day 91): 4.4 ± 1.4
- MDS (n) (DU145 prostate carcinoma; mean days of survival until tumor reached 1.5 g, i.v. qd x 1 at estimated MTD (Taxol 24 mg/kg as two split doses), 5 mice/group, study ended Day 91): 67.2 ± 8.3 (3) days
- Stable Disease (DU145 prostate carcinoma; number of 5 mice, tumor did not reach 1.5 g by end of study, i.v. qd x 1 at estimated MTD (Taxol 24 mg/kg split), Day 91): 1
- Toxic Deaths (DU145 prostate carcinoma; number of 5 mice, i.v. qd x 1 at estimated MTD (Taxol 24 mg/kg as two split doses), Day 91): 0
- Complete Response (DU145 prostate carcinoma; [5]): 1
- Partial Response (DU145 prostate carcinoma; [5]): 0
- Survivors (DU145 prostate carcinoma; [5]): 2
- tolerability (VM46 colon carcinoma; VM46, i.v. qd x 1): well-tolerated
- Toxic Deaths (VM46 colon carcinoma; VM46, i.v. qd x 1, six mice per group): no toxic deaths
- Mean Score (VM46 colon carcinoma; iv): 2 ± 0.3
- MDS (n) (VM46 colon carcinoma; iv, 1536 h): 41.9 ± 4.2 (5) days
- Toxic Deaths (VM46 colon carcinoma; number of mice, i.v. qd x 1, mg/kg: Taxol 24, 0499 77, 0503 72.6, 0670 123.1, 0706 107.6, 0838 72.6, 0854 46.6, 0983 67.4, Taxotere 70, 6 mice/group): 0
- Complete Response (VM46 colon carcinoma; [6]): 0
- Partial Response (VM46 colon carcinoma; [6]): 0
- Stable Disease (VM46 colon carcinoma; [6]): 1
- Survivors (VM46 colon carcinoma; [6]): 1
